{"source": "patent EP1388013B1", "about": "“COMPOSITIONS AND METHODS FOR THE USE OF FIBRONECTIN FRAGMENTS IN THE DIAGNOSIS OF CANCER” (THE REGENTS OF THE UNIVERSITY OF MICHIGAN, priority 2001, dated 2002)", "key": {"[1]": {"system": "normal human mammary epithelial cells", "assay": "SU-ECM invasion assay, normal mammary epithelial cells", "format": "cell-based", "conditions": "SU-ECM, serum containing environment; Figure 12", "procedure": "Adult Strongylocentrotus purpuratus sea urchins were obtained from Pacific BioMarine, and their embryos were cultured to the early pluteus stage in artificial sea water at 15°C. SU-ECM were prepared from them by treatment with nonionic detergent and sterilized by dilution in the appropriate media.\n[…] When appropriate, purified bovine plasma fibronectin (Sigma, St. Louis, Mo), purified 120 kDa chymotryptic fragment (Gibco BRL), PHSRN or PHSCN peptides (synthesized at the Biomedical Research Core Facilities of the University of Michigan), or GRGDSP or GRGESP peptides (Gibco BRL) were added to the resuspended cells prior to placement of the cells on SU-ECM. In each well of a plate used for an invasion assay, SU-ECM were placed in 0.5 ml of the appropriate medium, and 0.5ml of the resuspended cells dropped on their exterior surfaces. Invasion assays were incubated 1 to 16 hours prior to scoring. If some circumstances, invasion assays were fixed in phosphate-buffered saline (PBS) with 2% formaldehyde for 5 minutes at room temperature, then rinsed into PBS.\n(§1) Invasion assays were coded and scored blindly by microscopic examination under phase contrast at 200- and 400-fold magnification. Each cell contacting an SU-ECM was scored for its position relative to the exterior or interior surfaces. A cell was judged to have invaded if it was located on an interior surface below the focal plane passing through the upper surface of the SU-ECM, but above the focal plane passing through its lower surface. The minimum viability of the cells in each assay was always ascertained at the time of assay by determining the fraction of spread, adherent cells on the bottom of each well scored.\nAn invasion frequency is defined as the fraction of cells in contact with basement membranes which were located in their interiors at the time of assay. […] Invasion frequencies were determined multiple times for each cell type assayed. For each type of cell assayed the mean and standard deviation of the invasion frequencies were calculated. […]"}, "[2]": {"system": "normal, neonatal fibroblasts", "assay": "Invasion of fibronectin-depleted Matrigel by fibroblasts", "format": "cell-based", "conditions": "gelatin plus antibody panned Matrigel; Figure 2", "procedure": "Anti-fibronectin antibody-coated wells: Wells of a 24-well plate were coated with an anti-fibronectin antibody. A mouse monoclonal antibody to human fibronectin was obtained from Oncogene Science (Catalog #CP13). Each well was incubated with 1 ml of antibody at a concentration of […] for 2 hours at room temperature. Each well was then incubated with a solution of 3% BSA in PBS for 2 hours at room temperature. Following the two incubation periods, the wells were thoroughly washed with PBS and stored at -20 °C until use.\nDepleting Matrigel of Fibronectin: Matrigel was panned over eight gelatin-coated wells (as described above in Example 2) to remove most of the fibronectin and its fragments. Thereafter, the Matrigel was placed in the antibody-coated wells to remove any remaining fragments of fibronectin which contain the cell-binding domain but not the gelatin-binding domain. The Matrigel was incubated in an ice bucket on an orbital shaker at 4 °C for 2 hours. Once the Matrigel was depleted, it was collected in Eppendorf tubes. The fibronectin-depleted Matrigel was plated on a 48-well plate (150 µl/well), sterilized under a UV light for 10 minutes and incubated at 37 °C overnight. The Matrigel formed a gel and the following day, cells were added to the wells. […]"}, "neonatal fibroblasts": {"system": "neonatal fibroblasts", "assay": "SU-ECM invasion assay, neonatal fibroblasts", "format": "cell-based, human", "description": "In one example cells for the invasion assay are harvested by rinsing in Hanks' balanced salt solution, followed by brief treatment with 0.25% trypsin, 0.02% EDTA, and pelleting and resuspension in the appropriate medium with or without 5% FCS at a density of about 50,000 cells per ml. When appropriate, purified bovine plasma fibronectin (from Sigma, St. Louis, Mo), purified 120 kDa chymotryptic fragment (Gibco BRL) or PHSRN peptides (synthesized at the Biomedical Research Core Facilities of the University of Michigan) are added to the resuspended cells prior to placement of the cells on SU-ECM. In each well of a plate used for an invasion assay, SU-ECM were placed in 0.5 ml of the appropriate medium, and 0.5ml of the resuspended cells dropped on their exterior surfaces. Invasion assays were incubated 1 to 16 hours prior to assay. If some circumstances, invasion assays were fixed in phosphate-buffered saline (PBS) with 2% formaldehyde for 5 minutes at room temperature, then rinsed into PBS.\nas §1, with “are” for “were”, “is” for “was”\nAn invasion frequency is defined as the fraction of cells in contact with basement membranes which are located in their interiors at the time of assay. Thus, an invasion frequency of 1 denotes invasion by 100% of the cells in contact with basement membranes. Invasion frequencies are determined multiple times for each cell type assayed. For each type of cell assayed the mean and standard deviation of the invasion frequencies were calculated.\nIn this example, the invasiveness of neonatal fibroblasts into an SU-ECM invasion substrate is considered. Experiments were performed under serum-free conditions, or in medium with 10% fetal calf serum (FCS). Neither serum-free medium nor medium containing serum supported fibroblast invasion. However, consistent with the induction of metalloproteinase gene transcription by the 120 kDa fragment of plasma fibronectin (pFn) containing the cell-binding domain, the 120 kDa fragment induced fibroblast invasion in the presence or in the absence of serum. […]"}}, "note": "No end group written: not given here.", "data": [{"substance": "PHSRN [PHSRN]", "values": [{"measurement": "induction of invasive behavior of human mammary epithelial cells", "setting": "[1]", "value": "induces the invasive behaviors"}, {"measurement": "induction of fibroblast invasiveness on fibronectin-depleted Matrigel", "setting": "[2]", "value": "could be induced"}, {"measurement": "induction of fibroblast invasion of SU-ECM, dose response", "setting": "neonatal fibroblasts; 10 to 3000 ng per ml, presence or absence of serum, log-linear, Figure 10", "value": "able to induce fibroblast invasion"}, {"measurement": "induction of fibroblast invasion of SU-ECM", "setting": "neonatal fibroblasts; in the presence (10% FCS) or absence of serum, molar concentration equivalent to plasma fibronectin in serum, Figure 9", "value": "contained all the invasion-stimulatory activity"}, {"measurement": "induction of fibroblast invasion of SU-ECM", "setting": "neonatal fibroblasts; serum-free SU-ECM", "value": "induced"}]}]}
